In a melting point compilation (Tetko et al.):

Structure (SMILES) | melting point [°C]
Cc1ccc(C(c2ccc(C)o2)c2cc([N+](=O)[O-])cc(Br)c2O)o1 | 153
CS(=O)(=O)NC(=O)c1cc(Oc2ccc(C(F)(F)F)cc2Cl)ccc1[N+](=O)[O-] | 220
Nc1cccc(Cn2ccnc2)c1 | 72 to 74
CNC(=O)N(C)C | 75.5
COC(=O)c1ccc(I)c(C)c1 | 61
Oc1ccc(S)cc1 | 34
CC(=O)C1CCC2(C)C(CCC3C4CCC(O)C4(C)CCC32)C1 (configuration not stated) | 145
Cc1nc(-c2ccc(S(=O)(=O)N3CCOCC3)cc2)c(-c2ccc(S(=O)(=O)N3CCOCC3)cc2)o1 | 245 to 248
O=C1OC(c2ccc(O)c3ccccc23)(c2ccc(O)c3ccccc23)c2ccccc21 | 254
CC(C)CC(C)(N)P(=O)(O)O (configuration not stated) | 234 to 238
CC(C)CNC(=O)N1CCNC1=O | 95.5
S=c1sc2ccccc2n1CCl | 126 to 131
CC(C)C1(C)N=C(c2nc3ccccc3cc2C(=O)O)NC1=O (configuration not stated) | 224
N#CCC(=O)c1cccc(C(F)(F)F)c1 | 61
NC(=O)c1cc(F)ccc1F | 114 to 116
CC(C)(C)OC(=O)N1CCN(Cc2ccc(CO)cc2)CC1 | 52 to 53
COc1ccc(CCC(C)=O)cc1 | 8
NC(=O)c1nn(-c2ccccc2)c2ncnc(N)c12 | 295
N#Cc1ccc(F)cc1C#N | 101
CC1Sc2ccc(Cl)cc2-c2nc(N)ncc21 (configuration not stated) | 181 to 183
c1ccc2c(c1)-c1ccccc1C2c1ccncc1 | 142 to 145
FC(F)(F)C(F)(F)C(F)(F)C(F)(F)C(F)(F)F | -100
Nc1cc(C(F)(F)F)c(F)cc1Br | 27
O=C(c1ccccc1)c1nn2c(C(F)(F)F)nnc2s1 | 157
O=Cc1cccc2ccnn12 | 85

Structure (SMILES) | melting point [°C]
O=[N+]([O-])c1ccc(N/N=C2\C=C(c3ccccc3)c3ccccc32)cc1 | 265 to 266
COc1ccc(Oc2ncccc2[N+](=O)[O-])cc1 | 95 to 101
COc1ccc2c(c1)C(=O)N(CCc1ccc(S(=O)(=O)NC(=O)NC3CCCCC3)cc1)C(=O)C2(C)C | 181
O=C(O)c1ccc(N2CCCC2)cc1 | 230
N#Cc1ccc(Cn2ccnc2)cc1 | 103 to 104
NNC(=O)c1ccc(Cl)c(Cl)c1 | 154 to 160
CC1(C)N[C@H](C(=O)O)Cc2c1[nH]c1ccccc21 | 227 to 228
CCOC(=O)Cn1cnc(Cl)c1Cl | 65 to 67
CCCCCCCCCCCCOc1ccc(C(C)=O)cc1 | 44 to 47
CCN(C#N)CC | -80.6
CC(Cl)C(=O)Cl (configuration not stated) | -71
CCCCCCCOC(=O)CCCCCCC | -10.6
Cc1cc(I)cnc1NC(=O)C(C)(C)C | 143
CC(=O)C1CC(CC(=O)O)C1(C)C (configuration not stated) | 104 to 107
COC(=O)c1ccc(CN2CCN(C(=O)OC(C)(C)C)CC2)cc1 | 78 to 80
O=C1O[C@H](C(Cl)(Cl)Cl)N2CCC[C@@H]12 (relative stereo) | 110
C#CC1(O)CCC2C3CCC4=C(CCC(=O)C4)C3CCC21C (configuration not stated) | 170
CC#CCN1C(=O)c2ccccc2C1=O | 221
O=C(C=Cc1ccc(O)c(O)c1)OC1CC(O)(C(=O)O)CC(O)C1O (configuration not stated) | 205 to 209
S=c1oc2ccccc2n1CN1CCCCC1 | 255
CC1(C)SC2C(NC(=O)COc3ccccc3)C(=O)N2C1C(=O)O (configuration not stated) | 124
CC(=O)N1C(=O)c2ccccc2C1=O | 137
CNS(=O)(=O)O | 189 to 193
O=C(CN1CCN(Cc2ccc3c(c2)OCO3)CC1)N1c2ccccc2Sc2ccccc21 | 142
COc1ncccc1N | 67 to 68

Structure (SMILES) | melting point [°C]
O=C1NC(=S)SC1=Cc1cccc(C=C2SC(=S)NC2=O)c1 | 316
CC(=O)NC(N)=S | 165
CNC(=O)Oc1cccc(C(C)C)c1 | 73
COCCNc1c(C=O)c(=O)n(C)c(=O)n1C | 137
CNC(=O)Oc1ccc(C)c(C)c1 | 79.5
COP(=O)(OC)OC(Br)C(Cl)(Cl)Br (configuration not stated) | 27
CCN(CC)C(=O)SCc1ccc(Cl)cc1 | 3.3
O=C(O)c1cc(C(F)(F)F)ccc1C(F)(F)F | 79
CCCCCCCCCCCCCC=CC(O)C(CO)NC(=O)CCCCCCCCCCCCCCC (configuration not stated) | 94 to 95
C[C@]12CCC(=O)C=C1CC[C@@H]1[C@@H]2CC[C@@]2(C)[C@H]1CC[C@]2(O)C#Cc1ccccc1 | 185 to 187
Cc1ccc(C(C)C)c(O)c1C(=O)O | 127
CC(C)C(C)(C)[Si](C)(C)Cl | 15
CCCCC(C(=O)O)C(=O)O | 104
Nc1nc2ccccc2[nH]1 | 230
FC(F)(F)c1cccnc1Cl | 39
CC(C)NCC(O)c1cc(O)cc(O)c1 (configuration not stated) | 100
O=C=Nc1ccc2c(c1)CCO2 | 42 to 43
O=c1cc(-c2ccccc2)cc(-c2ccccc2)o1 | 137
N#Cc1ccc(-c2cc[nH]n2)cc1 | 141
Cn1cc(Br)c(N)n1 | 98
CN(O)C(=O)Cc1ccc(OCc2ccccc2)cc1 | 96
O=[N+]([O-])c1ccc2c(c1)CCN2 | 93
COc1ccc(C(=O)C(=O)c2ccc(OC)cc2)cc1 | 131 to 134
CCOC=C(C#N)S(=O)(=O)c1ccc2ccccc2c1 | 90 to 92.5
OCC1OC(n2cnc3c(NCc4ccco4)ncnc32)C(O)C1O (configuration not stated) | 152 to 154

The next lines start with the values.

melting point [°C] | Structure (SMILES)
48 to 52 | CC(=O)NCCc1ccccc1
185 | O=C(N[C@@H](Cc1ccc(F)cc1)C(=O)O)OCC1c2ccccc2-c2ccccc21
129 | O=S(=O)(Cl)c1cccc2cccnc12
178 to 179 | O=C(O)C=Cc1ccc(OC(F)(F)F)cc1
115 to 117 | CNc1nnc(C(F)(F)F)s1
30 | CCOC(=O)Cc1ccc(Br)cc1
206 | NNC(=O)c1cc(Cl)cc(Cl)c1
150 | CCOC(=O)c1c(C)[nH]c(=O)[nH]c1=S
147 to 149 | CC1(C)OC(=O)C(=C2CCCCCN2)C(=O)O1
98 to 99 | Cc1nc(-c2cccc(C=O)c2)no1
164 to 169 | COC(=O)C=P(c1ccccc1)(c1ccccc1)c1ccccc1
107 to 113 | N#CC1(O)C(C2COC3(CCCCC3)O2)OC2OC3(CCCCC3)OC21 (configuration not stated)
270 | CC(=O)Nc1ccccc1C=Cc1cc(C=Cc2ccccc2NC(C)=O)c([N+](=O)[O-])cc1[N+](=O)[O-]
-55.6 | CCCCCCCCOC(=O)CCC
110 | O=C1C(=Cc2ccccc2)Cc2ccccc21
2 | Cc1cccc(C(=O)Cl)c1C
113 | Oc1cc(C(F)(F)F)nc2c(F)cccc12
301 to 303 | CC(=O)c1c(C)n(O)c2ccc3nonc3c12
170 | COc1cc(OC)nc(NC(=O)NS(=O)(=O)c2c(-c3nnn(C)n3)cnn2C)n1
309 to 310 | COc1c(Br)ccc2c1C(=NNc1ccc([N+](=O)[O-])cc1[N+](=O)[O-])C2
41 | Cc1ccc(C(C)C(=O)O)cc1 (configuration not stated)
103 | CC(=O)N(c1ccccc1)c1ccccc1
-50 | CCOC(=O)CC(=O)OCC
72 | N#Cc1ccc(Cl)c(Cl)c1
104 to 105 | COC(=O)c1ccc(S(=O)(=O)NC(C)(C)C)n1C
274 | C[C@H](O)[C@@H](N)C(=O)O

melting point [°C] | Structure (SMILES)
145 | O=C(Nc1cccnc1)C(F)(F)C(F)(F)C(F)(F)C(F)(F)C(F)(F)C(F)(F)C(F)(F)C(F)(F)F
-70 | CCOCCO
62 | OCCc1cccc2ccccc12
138 | O=[N+]([O-])c1ccc(Br)nc1
71 | Fc1c(F)c(F)c(P(c2ccccc2)c2ccccc2)c(F)c1F
281 | COc1ccc(NC=C2C(=O)NN=C2c2c(O)c3ccccc3n(C)c2=O)cc1
68 to 69 | CNCc1ccc(-c2ccsc2)cc1
88 | CCCCCCCCCCCCCCCCCCCCCCCCCCCCCCO
85 | Cc1cccc2c1Cc1ccccc1-2
150 | COC(=O)c1ccc2c(I)c[nH]c2c1
64 to 65 | CC1CCC(C(C)C)C(OC(=O)/C(=C/c2ccccc2)Cc2ccccc2)C1 (configuration not stated)
205 | NC(=O)N1c2ccccc2CCc2ccccc21
291 | Nc1nn2c(C(F)(F)F)cc(=O)[nH]c2c1/N=N/c1cccc(C(F)(F)F)c1
104 | COc1cc(CC(=O)O)ccc1Br
65 | CC1CCC(C(C)C)C(OC(=O)C(=Cc2ccccc2)C(=O)c2ccccc2)C1 (configuration not stated)
209 to 211 | CSc1sc(C(=O)O)c(-c2cccc(Cl)c2)c1C#N
29.5 | CCCS(=O)(=O)CCC
157 to 160 | O=C1CC2C(Cl)CC1C2C(=O)O (configuration not stated)
71 to 72 | Nc1ccc(Oc2ccccc2)nc1
110 | Cn1c(Cl)cc(=O)n(C)c1=O
44.5 | Fc1ccc(C(c2ccc(F)cc2)C(Cl)(Cl)Cl)cc1
72 to 75 | O=C(c1ccccc1)c1ccc2c(c1)OCCCO2
97.3 | COC(=O)[C@H]1OC(c2ccc(OC)c(OC)c2)([C@@H](C)Br)O[C@@H]1C(=O)OC
95 to 96 | Cc1noc(-c2cccc(Br)c2)n1
158 | Cc1ccc(NC(=O)CC2C(=O)C3(C)CCC2C3(C)C)cc1 (configuration not stated)
60 to 63 | N#CCc1ccc(Cl)cc1Cl
